Measured values published in patent US7241737B2, “Urotensin-II agonists and antagonists” (priority 2000, dated 2007).
Entries after “also recorded” stand apart in the source; their conditions may differ. Bridge positions count the residues as written; N and C are the ends. Ends that are not written are not given here.

Assays:
rat aorta contraction = test: Peptide-induced contraction of rat aorta rings (agonist activity)
Description: Male Sprague-Dawley rats (250-350 g), which had been quarantined for 5-7 days prior to the experiments, were sacrificed by decapitation (experiments were approved by the Advisory Committee For Animal Resources, Tulane University School of Medicine). The thoracic aorta was dissected, freed from connective tissue, and cut into rings of about 1.5 mm in width. The rings were suspended in a 15 ml organ bath containing high potassium Kreb's solution (9.15 g/L potassium chloride, 2.1 g/L sodium bicarbonate, 1.0 g/L glucose, 0.16 g/L potassium phosphate monobasic, 0.14 g/L magnesium sulfate (anhydr.), and 0.22 g/L calcium chloride (dihydr.))
Optimal tension was applied (0.2 g) to the tissues and the bath medium was maintained at 37° C. and bubbled with a mixture of 95% O2/5% CO2. […] Changes in arterial smooth muscle tension were recorded isometrically using a force-displacement transducer (Radnoti), and a AcqKnowledge ACK100 Version 3.2 (BIOPAC Systems, Inc., Santa Barbara, Calif.)
In siliconized glass tubes, peptides were dissolved in dionized water at a concentration of 1 μg/1 μL (stock solution) and then diluted 1:10 with sterile BSA-saline solution (0.1% BSA, fraction V, Sigma, St. Louis in 0.9% NaCl). […] Peptide-induced changes in tension of the aorta rings were recorded by force-displacement transducers and processed by the computer system BIOPAC Inc., as described above. […]

U-II receptors = molecular target: T1, U-II receptors (Rattus norvegicus, UniProt P49684); test: Binding to U-II receptors (rat aorta tissue)
T1 construct: from tissue; host or cells: rat thoracic aorta (circular strips / rings)
T1 sequence (P49684 1-386): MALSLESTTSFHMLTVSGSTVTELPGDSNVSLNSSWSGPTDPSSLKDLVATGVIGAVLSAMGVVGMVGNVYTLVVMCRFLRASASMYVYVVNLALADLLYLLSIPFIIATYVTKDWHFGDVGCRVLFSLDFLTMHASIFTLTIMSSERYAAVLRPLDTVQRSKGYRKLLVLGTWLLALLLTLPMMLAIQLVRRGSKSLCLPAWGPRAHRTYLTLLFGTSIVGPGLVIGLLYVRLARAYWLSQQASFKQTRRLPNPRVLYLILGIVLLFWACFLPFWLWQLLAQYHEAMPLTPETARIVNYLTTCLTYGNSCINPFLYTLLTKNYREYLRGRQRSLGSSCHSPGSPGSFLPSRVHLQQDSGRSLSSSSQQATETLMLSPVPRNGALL

Asp-c[Cys-Phe-Trp-Lys-Tyr-Cys]-Val-OH (DCFWKYCV-OH; disulfide 2-7 (inferred))
potency in inducing rat aorta contraction relative to full human and fish U-II (rat aorta contraction): greater potency than the full human and fish U-II sequences; also recorded: more potent than the full human and fish sequences
potency in binding to rat aorta tissue relative to full human and fish U-II (U-II receptors): greater potency than the full human and fish U-II sequences
